81 molecules from ChEMBL document CHEMBL3727364, “Resorcinol n-aryl amide compounds, for use as pyruvate dehydrogenase kinase inhibitors” (2015) can be followed below.

This test deals with [Pyruvate dehydrogenase (acetyl-transferring)] kinase isozyme 1, mitochondrial (Homo sapiens, UniProt Q15118). The test is described as follows: Binding affinity to pyruvate dehydrogenase kinase 1 (unknown origin) incubated for 90 mins by VER-00160364 probe based fluorescence polarization assay. A general note: In fluorescence polarisation assays a small probe gives low polarisation when free and higher when bound to something large.

Structures are written as SMILES.

Chain of [Pyruvate dehydrogenase (acetyl-transferring)] kinase isozyme 1, mitochondrial (Q15118 whole entry): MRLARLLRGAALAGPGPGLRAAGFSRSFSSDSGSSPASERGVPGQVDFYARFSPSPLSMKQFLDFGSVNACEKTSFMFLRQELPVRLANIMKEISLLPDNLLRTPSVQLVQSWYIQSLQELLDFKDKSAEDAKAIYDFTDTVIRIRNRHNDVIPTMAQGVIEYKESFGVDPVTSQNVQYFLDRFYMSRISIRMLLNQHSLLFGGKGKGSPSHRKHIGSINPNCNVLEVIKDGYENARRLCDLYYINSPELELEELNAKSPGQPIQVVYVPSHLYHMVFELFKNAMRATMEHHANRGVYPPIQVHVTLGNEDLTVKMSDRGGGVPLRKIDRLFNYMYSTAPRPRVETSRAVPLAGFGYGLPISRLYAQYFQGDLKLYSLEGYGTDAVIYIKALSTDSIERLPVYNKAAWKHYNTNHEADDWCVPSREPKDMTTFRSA

Take `O=C(c1ccc(O)cc1O)N(Cc1ccsc1)c1ccc(-c2ccnc3ccccc23)cc1`: the concentration for half-maximal inhibition (IC50) turned out to be 1000 nM. That is a single-digit micromolar value.

`O=C(c1ccc(O)cc1O)N(Cc1ccsc1)c1ccc(-c2nc3ccccc3cc2CO)cc1` registered an IC50 of 100 nM.

Molecule `Cc1cc2cc(F)ccc2nc1-c1ccc(N(Cc2ccsc2)C(=O)c2ccc(O)cc2O)cc1` displayed a 50% inhibitory concentration (IC50) of 1000 nM. This IC50 is about 10-fold higher than that of the molecule before.

In turn, `O=C(c1ccc(O)cc1O)N(Cc1cccnc1)c1ccc(-c2nccc3occc23)cc1` displayed an IC50 of 1000 nM. This lies in the single-digit micromolar range.

`O=C(c1ccc(O)cc1O)N(Cc1ccsc1)c1ccc(-c2cnc3ccccc3n2)cc1` came in with a 50% inhibitory concentration (IC50) of 10000 nM. Against the preceding molecule, the IC50 is about 10-fold higher.

As to `CN(Cc1cccc2ccccc12)C(=O)c1ccc(N(Cc2ccsc2)C(=O)c2ccc(O)cc2O)cc1`, the IC50 turned out to be 1000 nM.

Take `COc1cnc(Cl)nc1-c1ccc(N(Cc2ccsc2)C(=O)c2ccc(O)cc2O)cc1`: the 50% inhibitory concentration (IC50) was determined as 100 nM. This IC50 lies about 10-fold lower than the previous one.

Consider `Cc1ccc(S(N)(=O)=O)nc1-c1ccc(N(Cc2ccsc2)C(=O)c2ccc(O)cc2O)cc1`, for which the concentration for half-maximal inhibition (IC50) came out at 100 nM.

For `Cc1nc(-c2ccc(N(Cc3ccsc3)C(=O)c3ccc(O)cc3O)cc2)c2ccccc2n1`, the IC50 came out at 1000 nM.

Regarding `CCc1cc2ccccc2nc1-c1ccc(N(Cc2ccsc2)C(=O)c2ccc(O)cc2O)cc1`, the IC50 is 1000 nM.

`Cc1cc(S(=O)(=O)N2CCCCC2)cnc1-c1ccc(N(Cc2ccsc2)C(=O)c2ccc(O)cc2O)cc1` showed an IC50 of 10 nM.

As to `Nc1nccc(-c2ccc(N(Cc3cccnc3)C(=O)c3ccc(O)cc3O)cc2)n1`, the IC50 stood at 1000 nM. This IC50 is about 100-fold higher than that of the molecule before.

Molecule `O=C(c1ccc(O)cc1O)N(Cc1cccnc1)c1ccc(-c2nc(C(F)(F)F)ccc2C(F)(F)F)cc1` displayed a 50% inhibitory concentration (IC50) of 10 nM.

The molecule `O=C(c1ccc(O)cc1O)N(Cc1cccnc1)c1ccc(-c2nc(Cl)nc3[nH]ccc23)cc1` registered an IC50 of 100 nM.

`CN(Cc1ccc2ccccc2n1)C(=O)c1ccc(N(Cc2ccsc2)C(=O)c2ccc(O)cc2O)cc1`: the concentration for half-maximal inhibition (IC50) is 100 nM.

As to `COc1ccc(CN(C)C(=O)c2ccc(N(Cc3ccsc3)C(=O)c3cc(Cl)c(O)cc3O)cc2)cc1`, the half-maximal inhibitory concentration (IC50) is 100 nM.

On to `CN(C)C(=O)c1ccc(N(Cc2ccsc2)C(=O)c2ccc(O)cc2O)cc1`, for which the IC50 was 10 nM.

For `O=C(c1ccc(O)cc1O)N(Cc1ccsc1)c1ccc(-c2ncnc3ccc(Cl)cc23)cc1`, the IC50 is 1000 nM.

Regarding `Cc1nc(N(C)C)nc(-c2ccc(N(Cc3cccnc3)C(=O)c3ccc(O)cc3O)cc2)c1C`, the IC50 amounted to 1000 nM.

`CCc1cnc(C)nc1-c1ccc(N(Cc2cccnc2)C(=O)c2ccc(O)cc2O)cc1` came in with a half-maximal inhibitory concentration (IC50) of 10 nM. This IC50 is about 100-fold lower than that of the molecule before.

In turn, `COc1cc(-c2ccc(N(Cc3ccsc3)C(=O)c3ccc(O)cc3O)cc2)cnc1OC` came in with a 50% inhibitory concentration (IC50) of 10000 nM. This IC50 is about 1000-fold higher than that of the molecule before.

Take `CSc1nc(-c2ccc(N(Cc3ccsc3)C(=O)c3ccc(O)cc3O)cc2)c2cc[nH]c2n1`: the IC50 was determined as 1000 nM.

As for `COc1cc(-c2ccc(N(Cc3ccsc3)C(=O)c3ccc(O)cc3O)cc2)ncn1`, the 50% inhibitory concentration (IC50) worked out at 10000 nM. This IC50 lies about 10-fold higher than the previous one.

For `N#Cc1cc(Cl)nc(-c2ccc(N(Cc3cccnc3)C(=O)c3ccc(O)cc3O)cc2)c1`, the concentration for half-maximal inhibition (IC50) turned out to be 100 nM.

`COc1ccc2nc(-c3ccc(N(Cc4ccsc4)C(=O)c4ccc(O)cc4O)cc3)c(C)cc2c1`: the IC50 amounted to 100 nM.

Take `N#Cc1cc(Cl)nc(-c2ccc(N(Cc3ccsc3)C(=O)c3ccc(O)cc3O)cc2)c1`: the 50% inhibitory concentration (IC50) came out at 10000 nM.

In turn, `O=C(c1ccc(O)cc1O)N(Cc1ccsc1)c1ccc(-c2ncnc3cccc(F)c23)cc1` returned an IC50 of 100 nM.

Turning to `Cc1cc(S(=O)(=O)N(C)CCO)cnc1-c1ccc(N(Cc2ccsc2)C(=O)c2ccc(O)cc2O)cc1`, the IC50 amounted to 100 nM. That is a sub-micromolar value.

In the case of `Cc1cc(S(=O)(=O)N2CCN(C)CC2)cnc1-c1ccc(N(Cc2ccsc2)C(=O)c2ccc(O)cc2O)cc1`, the IC50 came out at 10 nM. Compared with the last molecule, the IC50 is about 10-fold lower.

The molecule `Cc1cc2ccc(F)cc2nc1-c1ccc(N(Cc2ccsc2)C(=O)c2ccc(O)cc2O)cc1` had an IC50 of 100 nM. Compared with the last molecule, the IC50 is about 10-fold higher.

`Nc1nccc(-c2ccc(N(Cc3ccsc3)C(=O)c3ccc(O)cc3O)cc2)n1` registered a half-maximal inhibitory concentration (IC50) of 1000 nM.

On to `CCNc1cc(-c2ccc(N(Cc3ccsc3)C(=O)c3ccc(O)cc3O)cc2)ncn1`, for which the IC50 came to 10000 nM.

Regarding `CN(Cc1ccc2ccccc2c1)C(=O)c1ccc(N(Cc2ccsc2)C(=O)c2ccc(O)cc2O)cc1`, the concentration for half-maximal inhibition (IC50) is 1000 nM.

`Cc1cc(S(=O)(=O)N2CCC(F)(F)CC2)cnc1-c1ccc(N(Cc2ccsc2)C(=O)c2ccc(O)cc2O)cc1` displayed a concentration for half-maximal inhibition (IC50) of 1000 nM.

In turn, `Cc1cc2ccccc2nc1-c1ccc(N(Cc2ccsc2)C(=O)c2ccc(O)cc2O)cc1` had an IC50 of 100 nM.

In turn, `O=C(c1ccc(O)cc1O)N(Cc1ccsc1)c1ccc(-c2nc(Cl)nc3[nH]ccc23)cc1` registered an IC50 of 1000 nM.

In turn, `CN(Cc1ccnc2ccccc12)C(=O)c1ccc(N(Cc2ccsc2)C(=O)c2ccc(O)cc2O)cc1` gave a half-maximal inhibitory concentration (IC50) of 100 nM.

The molecule `Cc1cc(S(=O)(=O)NCCN(C)C)cnc1-c1ccc(N(Cc2ccsc2)C(=O)c2ccc(O)cc2O)cc1` displayed a half-inhibitory concentration (IC50) of 10 nM.

Molecule `Cc1cccnc1-c1ccc(N(Cc2cccnc2)C(=O)c2cc(Cl)c(O)cc2O)cc1` registered an IC50 of 10 nM.

Molecule `O=C(c1ccc(O)cc1O)N(Cc1ccsc1)c1ccc(-c2ncnc3ccsc23)cc1` returned a half-inhibitory concentration (IC50) of 1000 nM.

On to `CN(Cc1ccc2c(ccn2C)c1)C(=O)c1ccc(N(Cc2ccsc2)C(=O)c2ccc(O)cc2O)cc1`, for which the IC50 is 1000 nM.

In turn, `O=C(c1ccc(O)cc1O)N(Cc1ccsc1)c1ccc(-c2ncccc2CO)cc1` came in with a half-inhibitory concentration (IC50) of 100 nM.

`CSc1nc(Cl)cc(-c2ccc(N(Cc3cccnc3)C(=O)c3ccc(O)cc3O)cc2)n1`: the IC50 turned out to be 1000 nM.

Molecule `Cc1nccnc1-c1ccc(N(Cc2ccsc2)C(=O)c2ccc(O)cc2O)cc1` displayed an IC50 of 100 nM.

Molecule `Cc1nc(C(F)(F)F)nc(-c2ccc(N(Cc3ccsc3)C(=O)c3ccc(O)cc3O)cc2)c1C` came in with an IC50 of 100 nM.

In turn, `O=C(c1ccc(O)cc1O)N(Cc1ccsc1)c1ccc(-c2nc(Cl)nc3c2COCC3)cc1` showed a 50% inhibitory concentration (IC50) of 100 nM.

The molecule `Cc1cc(S(=O)(=O)NCc2ccccc2)cnc1-c1ccc(N(Cc2ccsc2)C(=O)c2ccc(O)cc2O)cc1` gave an IC50 of 100 nM.

The molecule `Cc1csc2ncnc(-c3ccc(N(Cc4cccnc4)C(=O)c4ccc(O)cc4O)cc3)c12` came in with a 50% inhibitory concentration (IC50) of 100 nM.

In the case of `Cc1cc2ccccc2nc1-c1ccc(N(Cc2cccnc2)C(=O)c2ccc(O)cc2O)cc1`, the half-inhibitory concentration (IC50) amounted to 10 nM. Compared with the last molecule, the IC50 is about 10-fold lower.

For the molecule `O=C(c1ccc(O)cc1O)N(Cc1ccsc1)c1ccc(-c2nc(C(F)(F)F)nc3ccccc23)cc1`, the 50% inhibitory concentration (IC50) was determined as 100 nM.

With `Cc1cnc(Cl)nc1-c1ccc(N(Cc2ccsc2)C(=O)c2cc(Cl)c(O)cc2O)cc1`, the IC50 was determined as 10 nM. This IC50 lies about 10-fold lower than the previous one.

With `COc1ccc(CN(C)C(=O)c2ccc(N(Cc3ccsc3)C(=O)c3cc(C)c(O)cc3O)cc2)cc1`, the IC50 was found to be 10 nM. This counts as double-digit nanomolar.

As for `Cc1cccnc1-c1ccc(N(Cc2cccnc2)C(=O)c2ccc(O)cc2O)cc1`, the half-inhibitory concentration (IC50) was determined as 100 nM.

Turning to `Cc1ncc(C)c(-c2ccc(N(Cc3ccsc3)C(=O)c3ccc(O)cc3O)cc2)n1`, the half-maximal inhibitory concentration (IC50) came out at 10 nM.

In the case of `CCc1nccnc1-c1ccc(N(Cc2ccsc2)C(=O)c2ccc(O)cc2O)cc1`, the concentration for half-maximal inhibition (IC50) worked out at 100 nM. This IC50 lies about 10-fold higher than the previous one.

`CN(Cc1ccc(OC(F)(F)F)cc1)C(=O)c1ccc(N(Cc2ccsc2)C(=O)c2ccc(O)cc2O)cc1`: the concentration for half-maximal inhibition (IC50) is 1000 nM.

For `Cc1cnc(Cl)nc1-c1ccc(N(Cc2ccsc2)C(=O)c2ccc(O)cc2O)cc1`, the IC50 was found to be 100 nM.

As to `COc1cc2cc(Cl)ccc2nc1-c1ccc(N(Cc2ccsc2)C(=O)c2ccc(O)cc2O)cc1`, the concentration for half-maximal inhibition (IC50) is 100 nM.

As for `O=C(c1ccc(O)cc1O)N(Cc1cccnc1)c1ccc(-c2ccnc3ccsc23)cc1`, the IC50 was 100 nM. In other words, the sub-micromolar range.

Regarding `Cc1nc(C)c(-c2ccc(N(Cc3cccnc3)C(=O)c3ccc(O)cc3O)cc2)s1`, the IC50 worked out at 1000 nM. This IC50 lies about 10-fold higher than the previous one.

`Cc1sc2ncnc(-c3ccc(N(Cc4ccsc4)C(=O)c4ccc(O)cc4O)cc3)c2c1C` came in with a half-maximal inhibitory concentration (IC50) of 1000 nM.

As to `Cc1ccnnc1-c1ccc(N(Cc2cccnc2)C(=O)c2ccc(O)cc2O)cc1`, the IC50 is 100 nM.

On to `CN(Cc1cccc2cnccc12)C(=O)c1ccc(N(Cc2ccsc2)C(=O)c2ccc(O)cc2O)cc1`, for which the IC50 was determined as 10 nM. This IC50 is about 10-fold lower than that of the molecule before.

The molecule `CN(Cc1cccc2cccnc12)C(=O)c1ccc(N(Cc2ccsc2)C(=O)c2ccc(O)cc2O)cc1` had a 50% inhibitory concentration (IC50) of 100 nM.

With `Cc1csc2ncnc(-c3ccc(N(Cc4ccsc4)C(=O)c4ccc(O)cc4O)cc3)c12`, the half-inhibitory concentration (IC50) was found to be 100 nM.

Molecule `Cc1cc(C(=O)N(Cc2ccsc2)c2ccc(C(=O)N(C)C)cc2)c(O)cc1O` displayed an IC50 of 100 nM.

Take `CN(Cc1cccs1)C(=O)c1ccc(N(Cc2ccsc2)C(=O)c2ccc(O)cc2O)cc1`: the IC50 came out at 100 nM.

Regarding `CN(Cc1cccc2ncccc12)C(=O)c1ccc(N(Cc2ccsc2)C(=O)c2ccc(O)cc2O)cc1`, the IC50 is 100 nM.

On to `Cc1c(Cl)nc(Cl)nc1-c1ccc(N(Cc2cccnc2)C(=O)c2ccc(O)cc2O)cc1`, for which the concentration for half-maximal inhibition (IC50) is 10 nM. This IC50 is about 10-fold lower than that of the molecule before.

Take `COc1cc(-c2ccc(N(Cc3cccnc3)C(=O)c3ccc(O)cc3O)cc2)ncn1`: the half-inhibitory concentration (IC50) was 1000 nM. Against the preceding molecule, the IC50 is about 100-fold higher.

Molecule `O=C(c1ccc(O)cc1O)N(Cc1ccsc1)c1ccc(-c2nc(C(F)(F)F)ccc2C(F)(F)F)cc1` registered a concentration for half-maximal inhibition (IC50) of 1000 nM.

`Cc1cc(S(=O)(=O)NCc2cccnc2)cnc1-c1ccc(N(Cc2ccsc2)C(=O)c2ccc(O)cc2O)cc1` returned a 50% inhibitory concentration (IC50) of 10 nM.

Take `CCOc1ccc2nc(-c3ccc(N(Cc4ccsc4)C(=O)c4ccc(O)cc4O)cc3)c(C)cc2c1`: the IC50 was found to be 1000 nM.

With `O=C(c1ccc(O)cc1O)N(Cc1cccnc1)c1ccc(-c2nc(Cl)nc3c2COCC3)cc1`, the IC50 was determined as 100 nM.

In turn, `Cc1cc(S(=O)(=O)N2CC(F)(F)C2)cnc1-c1ccc(N(Cc2ccsc2)C(=O)c2ccc(O)cc2O)cc1` came in with a 50% inhibitory concentration (IC50) of 100 nM.

In turn, `Cc1cc(C(=O)N(Cc2ccsc2)c2ccc(C(=O)N(C)Cc3ccc4nccnc4c3)cc2)c(O)cc1O` showed a concentration for half-maximal inhibition (IC50) of 10 nM.

Molecule `O=C(c1ccc(O)cc1O)N(Cc1ccsc1)c1ccc(-c2ccncc2C(F)(F)F)cc1` came in with an IC50 of 1000 nM.

Molecule `COc1ccc(CN(C)C(=O)c2ccc(N(Cc3ccsc3)C(=O)c3ccc(O)cc3O)cc2)cc1` displayed an IC50 of 100 nM. This IC50 is about 10-fold lower than that of the molecule before.

As for `Cc1nc(C(F)(F)F)nc(-c2ccc(N(Cc3cccnc3)C(=O)c3ccc(O)cc3O)cc2)c1C`, the IC50 worked out at 10 nM.

In turn, `Cc1cc2cc(Cl)ccc2nc1-c1ccc(N(Cc2ccsc2)C(=O)c2ccc(O)cc2O)cc1` came in with an IC50 of 1000 nM.

In turn, `CC(=O)N1CCN(S(=O)(=O)c2cnc(-c3ccc(N(Cc4ccsc4)C(=O)c4ccc(O)cc4O)cc3)c(C)c2)CC1` returned an IC50 of 10 nM.

In general, IC50 refers to the concentration at which inhibition is half-maximal. Low values mean greater potency in that assay, high ones weaker potency in that assay.
